ChEMBL document CHEMBL3885881, “DrugMatrix”

Species: Rattus norvegicus
Assay: DrugMatrix - Regimen: Daily Repeat
Format: toxicity, organism-based, Sprague-Dawley
Design: regimen Daily Repeat, gender Male, age 6-8 weeks
Conditions: in vivo, sc, route subcutaneous, […]; for ABSOLUTE BASOPHIL / ABSOLUTE EOSINOPHIL / ABSOLUTE LYMPHOCYTE / ABSOLUTE MONOCYTE / ABSOLUTE SEGMENTED NEUTROPHIL / BASOPHIL / EOSINOPHIL / ERYTHROCYTE COUNT / HEMATOCRIT / HEMOGLOBIN / LEUKOCYTE COUNT / LYMPHOCYTE / MEAN CORPUSCULAR HEMOGLOBIN / MEAN CORPUSCULAR HEMOGLOBIN CONCENTRATION / MEAN CORPUSCULAR VOLUME / MONOCYTE / NEUTROPHIL / NUCLEATED RED BLOOD CELLS / PLATELET COUNT: tissue Blood; for ALANINE AMINOTRANSFERASE / ALBUMIN / ALKALINE PHOSPHATASE / ASPARTATE AMINOTRANSFERASE / BLOOD UREA NITROGEN / CARBON DIOXIDE / CHLORIDE / CHOLESTEROL / CREATINE PHOSPHOKINASE / CREATININE / GLUCOSE / LACTATE DEHYDROGENASE / LIPASE / PHOSPHORUS / POTASSIUM / SODIUM / TOTAL BILIRUBIN / TOTAL PROTEIN / URIC ACID: tissue Plasma
[1] = 0 mg/kg, 72 h, dose level Control, time 3 day
[2] = 0 mg/kg, 120 h, dose level Control, time 5 day
[3] = 50 mg/kg, 72 h, dose level Low, time 3 day

## CCCCOC(=O)c1ccc(N)cc1 [BUTAMBEN]
[1]
  ABSOLUTE BASOPHIL: 0 CELLS/uL
  ABSOLUTE EOSINOPHIL: 42.67 CELLS/uL
  ABSOLUTE LYMPHOCYTE: 10202 CELLS/uL
  ABSOLUTE MONOCYTE: 261.5 CELLS/uL
  ABSOLUTE SEGMENTED NEUTROPHIL: 2193.83 CELLS/uL
  BASOPHIL: 0%
  EOSINOPHIL: 0.33%
  ERYTHROCYTE COUNT: 5.63 x10E6/uL
  HEMATOCRIT: 35.35%
  HEMOGLOBIN: 13.07 G/DL
  LEUKOCYTE COUNT: 12.7 x10E3/uL
  LYMPHOCYTE: 81.17%
  MEAN CORPUSCULAR HEMOGLOBIN: 23.23 pg
  MEAN CORPUSCULAR HEMOGLOBIN CONCENTRATION: 36.97 G/DL
  MEAN CORPUSCULAR VOLUME: 62.82 fL
  MONOCYTE: 2%
  NEUTROPHIL: 16.5%
  NUCLEATED RED BLOOD CELLS: 0 /100WBC
  PLATELET COUNT: 1180.33 x10E3/uL
  ALANINE AMINOTRANSFERASE: 48.67 u/L
  ALBUMIN: 4.08 G/DL
  ALKALINE PHOSPHATASE: 360.67 u/L
  ASPARTATE AMINOTRANSFERASE: 85.5 u/L
  BLOOD UREA NITROGEN: 17.83 mg/dL
  CARBON DIOXIDE: 26.17 mmol/L
  CHLORIDE: 101.83 MEQ/L
  CHOLESTEROL: 71 mg/dL
  CREATINE PHOSPHOKINASE: 515.17 u/L
  CREATININE: 0.22 mg/dL
  GLUCOSE: 192.5 mg/dL
  LACTATE DEHYDROGENASE: 214.67 u/L
  LIPASE: 8.5 u/L
  PHOSPHORUS: 12.95 mg/dL
  POTASSIUM: 6.39 MEQ/L
  SODIUM: 142.38 MEQ/L
  TOTAL BILIRUBIN: 0.18 mg/dL
  TOTAL PROTEIN: 5.95 G/DL
  URIC ACID: 1.83 mg/dL
[2]
  ABSOLUTE BASOPHIL: 0 CELLS/uL
  ABSOLUTE EOSINOPHIL: 188.5 CELLS/uL
  ABSOLUTE LYMPHOCYTE: 12360.83 CELLS/uL
  ABSOLUTE MONOCYTE: 64.33 CELLS/uL
  ABSOLUTE SEGMENTED NEUTROPHIL: 1986.33 CELLS/uL
  BASOPHIL: 0%
  EOSINOPHIL: 1.33%
  ERYTHROCYTE COUNT: 5.52 x10E6/uL
  HEMATOCRIT: 35.82%
  HEMOGLOBIN: 13.25 G/DL
  LEUKOCYTE COUNT: 14.6 x10E3/uL
  LYMPHOCYTE: 84.5%
  MEAN CORPUSCULAR HEMOGLOBIN: 24.05 pg
  MEAN CORPUSCULAR HEMOGLOBIN CONCENTRATION: 36.98 G/DL
  MEAN CORPUSCULAR VOLUME: 64.97 fL
  MONOCYTE: 0.5%
  NEUTROPHIL: 13.67%
  NUCLEATED RED BLOOD CELLS: 0 /100WBC
  PLATELET COUNT: 1297.83 x10E3/uL
  ALANINE AMINOTRANSFERASE: 51.17 u/L
  ALBUMIN: 4.08 G/DL
  ALKALINE PHOSPHATASE: 393.17 u/L
  ASPARTATE AMINOTRANSFERASE: 111 u/L
  BLOOD UREA NITROGEN: 18.17 mg/dL
  CARBON DIOXIDE: 25 mmol/L
  CHLORIDE: 105.17 MEQ/L
  CHOLESTEROL: 65.5 mg/dL
  CREATINE PHOSPHOKINASE: 911.5 u/L
  CREATININE: 0.21 mg/dL
  GLUCOSE: 183 mg/dL
  LACTATE DEHYDROGENASE: 189 u/L
  LIPASE: 8.33 u/L
  PHOSPHORUS: 12.78 mg/dL
  POTASSIUM: 6.05 MEQ/L
  SODIUM: 144.57 MEQ/L
  TOTAL BILIRUBIN: 0.25 mg/dL
  TOTAL PROTEIN: 5.83 G/DL
  URIC ACID: 1.58 mg/dL
[3]
  ABSOLUTE BASOPHIL: 0 CELLS/uL
  ABSOLUTE EOSINOPHIL: 143.67 CELLS/uL
  ABSOLUTE LYMPHOCYTE: 12216.67 CELLS/uL
  ABSOLUTE MONOCYTE: 393.33 CELLS/uL
  ABSOLUTE SEGMENTED NEUTROPHIL: 2079.67 CELLS/uL
  BASOPHIL: 0%
  EOSINOPHIL: 1%
  ERYTHROCYTE COUNT: 5.53 x10E6/uL
  HEMATOCRIT: 33.47%
  HEMOGLOBIN: 12.13 G/DL
  LEUKOCYTE COUNT: 14.83 x10E3/uL
  LYMPHOCYTE: 82.33%
  MEAN CORPUSCULAR HEMOGLOBIN: 21.93 pg
  MEAN CORPUSCULAR HEMOGLOBIN CONCENTRATION: 36.23 G/DL
  MEAN CORPUSCULAR VOLUME: 60.5 fL
  MONOCYTE: 2.67%
  NEUTROPHIL: 14%
  NUCLEATED RED BLOOD CELLS: 0 /100WBC
  PLATELET COUNT: 1210 x10E3/uL
  ALANINE AMINOTRANSFERASE: 56.33 u/L
  ALBUMIN: 3.9 G/DL
  ALKALINE PHOSPHATASE: 352 u/L
  ASPARTATE AMINOTRANSFERASE: 93.33 u/L
  BLOOD UREA NITROGEN: 15.67 mg/dL
  CARBON DIOXIDE: 27 mmol/L
  CHLORIDE: 103.67 MEQ/L
  CHOLESTEROL: 75.33 mg/dL
  CREATINE PHOSPHOKINASE: 408 u/L
  CREATININE: 0.24 mg/dL
  GLUCOSE: 178.67 mg/dL
  LACTATE DEHYDROGENASE: 150.67 u/L
  LIPASE: 8.33 u/L
  PHOSPHORUS: 12.53 mg/dL
  POTASSIUM: 5.89 MEQ/L
  SODIUM: 144.57 MEQ/L
  TOTAL BILIRUBIN: 0.2 mg/dL
  TOTAL PROTEIN: 5.57 G/DL
  URIC ACID: 1.43 mg/dL
